Laboratory results from publication PMC10747913, “Preparation of ^18F-Labeled Tracers Targeting Fibroblast Activation Protein via Sulfur [^18F]Fluoride Exchange Reaction” (Pharmaceutics, 2023).

Tests used:
human recombinant FAP = biological target: T1, human recombinant FAP (Homo sapiens, UniProt Q12884); experiment: Fluorogenic FAP enzyme inhibition assay (BPS Bioscience #80210, Ala-Pro-AMC substrate); assay type: biochemical; conditions: for Hill Coefficient: mean with 95% confidence interval in brackets
T1 construct: purchased BPS Bioscience 80210
T1 sequence (Q12884 1-760): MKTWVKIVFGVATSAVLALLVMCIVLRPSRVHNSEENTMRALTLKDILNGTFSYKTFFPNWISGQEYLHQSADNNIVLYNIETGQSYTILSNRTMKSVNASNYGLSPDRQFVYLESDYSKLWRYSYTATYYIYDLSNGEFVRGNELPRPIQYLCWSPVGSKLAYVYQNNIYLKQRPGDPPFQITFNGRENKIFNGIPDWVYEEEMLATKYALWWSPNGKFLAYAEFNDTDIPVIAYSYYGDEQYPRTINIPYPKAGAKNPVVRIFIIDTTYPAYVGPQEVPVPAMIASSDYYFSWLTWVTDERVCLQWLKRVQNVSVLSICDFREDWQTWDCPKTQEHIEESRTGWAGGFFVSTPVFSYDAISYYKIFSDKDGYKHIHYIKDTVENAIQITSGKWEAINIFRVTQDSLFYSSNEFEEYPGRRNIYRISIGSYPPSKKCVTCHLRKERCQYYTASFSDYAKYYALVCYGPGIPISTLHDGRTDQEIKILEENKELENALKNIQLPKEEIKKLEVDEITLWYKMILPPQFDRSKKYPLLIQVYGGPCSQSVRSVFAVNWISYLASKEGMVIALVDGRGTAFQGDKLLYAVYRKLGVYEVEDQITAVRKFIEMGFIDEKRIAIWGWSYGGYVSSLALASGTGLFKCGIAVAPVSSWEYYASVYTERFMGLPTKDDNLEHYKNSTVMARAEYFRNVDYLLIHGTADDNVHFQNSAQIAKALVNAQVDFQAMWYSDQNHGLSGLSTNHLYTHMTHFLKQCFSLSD
Experimental: To determine the inhibitory capacity, a commercial fluorogenic FAP assay was used (BPS Bioscience, San Diego, CA, USA, #80210) according to the manufacturer’s instructions. […] On the day of testing, a 1:10 dilution in the supplied DPP assay buffer was performed for all compounds. […] The fluorogenic peptide substrate (Ala-Pro-AMC dipeptide) was added and the reaction started with the addition of the human recombinant FAP (25 ng/µL). Immediately, the plate was loaded into a multilabel plate reader (Biotek Cytation 5, Agilent, Bellevue, WA, USA) and each well was measured at an excitation wavelength window of 360 ± 20 nm and an emission wavelength window of 450 ± 20 nm. The fluorescence intensity was measured over 15 min in intervals of 15 s, resulting in 61 data points per curve. Controls included blanks (omission of substrate, enzyme and inhibitor), negative (omission of enzyme) and positive controls (omission of inhibitor). The recorded time courses of the type (RFU − RFU0) = f(t) were analyzed with linear regression of the experimental data over the entire measurement period. […] (2) rate=Bottom+(Top−Bottom)×[I]^nH/[I]^nH+IC50^nH
Spanning a range of compound concentrations (50 pM–1 µM), fluorescence intensity changes were followed over 15 min.

Stability in EtOH = assay type: physicochemical; conditions: 120 min
Experimental: In addition, we performed a series of stability studies of compounds [^18F]12 and [^18F]13 in EtOH, phosphate-buffered saline (PBS, pH 7.4) and human serum (37 °C) to provide an indication of the rates of in vivo defluorination. […] These findings correlate with the unwanted accumulation of activity in the bones and joints obtained during PET imaging experiments in a healthy mice (Figure 5A,B).

[1] = Stability in PBS (pH 7.4); assay type: physicochemical; conditions: PBS pH 7.4, 120 min
Experimental: (§1) The radiochemical purity and identity of [^18F]12 and [^18F]13 was analyzed with radio-HPLC. […] Prior to a biological evaluation, preliminary stability studies of [^18F]12 and [^18F]13 were performed in human serum at 37 °C (Figure 3A,B). The stability studies were performed by taking an aliquot of the radiolabeled product solution and incubating the product mixture in the desired solvent or human serum at 37 °C for the given time points. In both cases, decomposition of [^18F]12 and [^18F]13 was evident from the first peak in the radioactive channel (tR: 0.6–1.0), most likely due to the release of [^18F]fluoride, which could be detected using UHPLC analysis from the first time point of 15 min and continued until 120 min. After 60 min, approximately 20% of [^18F]12 and 19% of [^18F]13 had been degraded; following a 120 min incubation, approximately 38% of both [^18F]12 and [^18F]13 had been degraded.

[2] = Serum stability assay at 37 °C (radio-UHPLC); assay type: in vitro ADME, human
Experimental: Either [^18F]12 or [^18F]13 (20–40 MBq) in 40 µL EtOH aliquots was incubated with 360 µL human serum (Sigma Aldrich, Darmstadt, Germany) at 37 °C. After specific time intervals (5–120 min), 40 µL samples were taken from the serum incubation mixture, added to 80 µL “Supersol” solubilizing agent (see Supplementary Materials Table S6) and cooled over ice for 2 min. Thereafter, the cooled mixture was centrifuged at 4 °C (15,000 rpm) for 3 min and 80 µL of the supernatant solution was monitored with radio-UHPLC. A gradient of 5% to 45% acetonitrile in 7.5 min was used for enhanced separation.
as §1

[3] = human
Experimental: Microsome experiments with [^18F]12 in the presence of NADPH were performed according to the procedure recently described by us with slight modifications. […] The radiotracer dissolved in EtOH (4 µL; 5 MBq/µL) was diluted with PBS (496 µL, 0.8% EtOH). This radiotracer solution (100 µL, 0.32% EtOH and 16 MBq/mL or 1.6 µM final) was mixed with PBS (112.5 µL) and human liver microsomes (12.5 µL of 20 mg/mL stock; 1 mg/mL final; Gibco™ Cat. No. HMMCPL, Lot. No. PL050E-B) in a 1.5 mL Eppendorf tube and the mixture was warmed for 5 min at 37 °C. Subsequently, NADPH (25 µL of freshly prepared 20 mM solution in PBS, 2 mM final) was added and the mixture was incubated at 37 °C. As a control incubation, NADPH was omitted and replaced by PBS. After distinct time points (10, 20, 30 and 60 min), an aliquot (40 µL) was withdrawn and added to ice-cooled CH3CN (160 µL). The mixture was vortexed for 30 s, stored on ice for 4 min and centrifuged (5 min at 15,000 rpm). The resulting supernatant was used for radio-HPLC analysis using the Shimadzu system described in Section 2.2 with the following conditions. A C18 column Kinetex® from Phenomenex (5 µm, 100 Å, LC Column 250 × 4.6 mm) served as stationary phase. The eluent consisted of (A) 0.1% trifluoroacetic acid in H2O and (B) MeCN; flow rate 1 mL/min; elution profile A/B: t0 min 70/30–t10.0 min 70/30–t11.0 min 5/95–t16.0 min 5/95–t17.0 min 70/30–t22.0 min 70/30.
Testosterone (40 µM final) was used as a positive control for the activity of the HLM and was separately incubated under the conditions described above (0% EtOH final).

[4] = Liver cytosol assay (HLC); assay type: in vitro ADME, human; conditions: positive control, 40 µM, after 60 min
Experimental: (§2) Liver cytosol experiments with [^18F]12 were performed according to reported procedures.
(§3) Vanilin (40 µM final) was used as positive control for the activity of the liver cytosols and was separately incubated under the conditions described above (1% EtOH final). […] More than 80% of the vanilin had been degraded after 60 min in the presence of HLC, while around 60% of the vanilin had been degraded with RLC. There was no change in the degradation rate with and without 1% EtOH in the incubation mixture.

[5] = Liver cytosol assay (RLC); assay type: in vitro ADME, rat; conditions: positive control, 40 µM, after 60 min
Experimental: as §2, §3

## N#C[C@@H]1CC(F)(F)CN1C(=O)CNC(=O)c1ccnc2ccc(OCCCN3CCN(C(=O)CN4CCN(CC(=O)O)CCN(CC(=O)O)CCN(CC(=O)O)CC4)CC3)cc12 [FAPI-04, reference compound]
Human recombinant FAP
  Hill Coefficient: −1.51 (−2.51 to −0.95)

## N#C[C@@H]1CC(F)(F)CN1C(=O)CNC(=O)c1ccnc2ccc(OCCCN3CCN(C(=O)c4cccc(OS(=O)(=O)[18F])c4)CC3)cc12 [[^18F]13]
Stability in EtOH
  stability in EtOH: stable
[1]
  stability in PBS: stable
[2]; 120 min incubation
  fraction degraded in human serum: approximately 38%
[2]; after 60 min
  fraction degraded in human serum: ~19%
[2]; after only 15 min
  stability in human serum: clear signs of instability

## C[C@]12CC[C@H]3[C@@H](CCC4=CC(=O)CC[C@@]43C)[C@@H]1CC[C@@H]2O [Testosterone, reference compound]
[3]
  time after which metabolization was completed: > 30 min

## COc1cc(C=O)ccc1O [vanilin, Vanilin, reference compound]
[4]
  fraction degraded in presence of HLC: More than 80%
[5]
  fraction degraded with RLC: around 60%

## N#C[C@@H]1CC(F)(F)CN1C(=O)CNC(=O)c1ccnc2ccc(OCCCN3CCN(C(=O)c4cccc(OS(=O)(=O)F)c4)CC3)cc12 [compound 13]
Human recombinant FAP
  IC50: 4.17 nM
  Hill Coefficient: −1.27 (−1.98 to −0.91)

## N#C[C@@H]1CC(F)(F)CN1C(=O)CNC(=O)c1ccnc2ccc(OCCCN3CCN(C(=O)c4ccc(OS(=O)(=O)F)cc4)CC3)cc12 [compound 12]
Human recombinant FAP
  IC50: 9.63 nM
  Hill Coefficient: −1.56 (−2.43 to −1.059)
